Assay results as given in patent US8158635B2, “Solid forms comprising 4-[9-(tetrahydro-furan-3-yl)-8-(2,4,6-trifluoro-phenylamino)-9H-purin-2-ylamino]-cyclohexan-1-ol, compositions thereof, and uses therewith” (Signal Pharmaceuticals, LLC, priority 2006, dated 2012).

Columns and labels:
Assay type in all cases: physicochemical
[1] = Moisture sorption analysis (Dynamic Vapor Sorption)
Method: (§1) In certain embodiments, Form A of the free base of Compound I is stable during drying at temperatures up to about 40-45° C. In certain embodiments, the crystallization and/or recrystallization of Form A of the free base of Compound I provides an effective means of purification by removing or reducing the levels of chemical impurities (such as, e.g., one or more of the chemical compounds provided in FIG. 14) in the resulting material. In certain embodiments, Form A of the free base of Compound I is substantially pure. […] In certain embodiments, Form A of the free base of Compound I is stable upon compression.
Hygroscopicity (moisture sorption desorption) was determined by Dynamic Vapor Sorption (DVS). A solid sample comprising Compound I ranging from 10 to 50 mg was placed into the DVS instrument at 0% relative humidity (RH). The RH was increased from 0% to 80% or 95%. The RH was then decreased in a similar manner to accomplish a full sorption desorption cycle.

[2] = Compression testing, form checked by XRPD; settings: about 2000-psi pressure for about 1 min
Method: as §1
X-ray powder diffraction (XRPD) measurements were performed in accordance with United States Pharmacopeia (USP) monograph <941> entitled “X-ray Diffraction” (See, e.g., The United States Pharmacopeia, The National Formulary, 2003, The Unites States Pharmacopeial Convention, Inc., Rockville, Md., 2002, which is herein incorporated by reference in its entirety). A Thermo ARL X'TRA X-ray powder diffractometer (Thermo Electron Corp., Waltham, Mass.), equipped with Nickel-filtered Cu Kα radiation at 1.54 Å, was used for XRPD measurements from about 1.5 °2θ to about 40 °2θ, with a step size of about 0.020°, a count time of about 0.50 seconds per step, and a step scan rate of about 2.40°/min. […] Diffracted radiation was measured using a Peltier-cooled Si (Li) solid-state detector. […]

Stability during drying = settings: temperatures up to about 40-45° C.
Method: as §1
Crude 4-[9-(tetrahydro-furan-3-yl)-8-(2,4,6-trifluoro-phenylamino)-9H-purin-2-ylamino]-cyclohexan-1-ol (“Compound I”) (5 g) was dissolved in ethanol (35 ml, 7 vol) at reflux (78-82° C.). Water (75 ml, 15 vol) was added, maintaining the temperature above 75° C. The solution was seeded (0.5-1%) and allowed to cool to ambient temperature (20-25° C.) over 4-6 h. The product was collected by filtration and washed with water (25 ml, 5 vol) then dried (18 h, 40-45° C.) to yield Form A of the free base of Compound I as an off-white crystalline solid. Form A is the imine tautomer of 4-[9-(terahydro-furan-3-yl)-8-(2,4,6-trifluoro-phenylamino)-9H-purin-2-ylamino]-cyclonhexan-1-ol having the structure: […]

[3] = Equilibration of solid form in solvent for 4 weeks at 40° C., resulting form by XRPD
Method: Equilibration slurry and evaporation experiments were carried out by adding an excess of Compound I free base or HCl salt to 2 mL of solvent. […] Upon reaching equilibrium, the saturated supernatant solution was removed and allowed to evaporate slowly in an open vial under nitrogen at 25° C. or 50° C., respectively. The slurry resulting from the equilibration was filtered and air-dried. X-ray powder diffraction (XRPD) measurements were performed in accordance with United States Pharmacopeia (USP) monograph <941> entitled “X-ray Diffraction” (See, e.g., The United States Pharmacopeia, The National Formulary, 2003, The Unites States Pharmacopeial Convention, Inc., Rockville, Md., 2002, which is herein incorporated by reference in its entirety). A Thermo ARL X'TRA X-ray powder diffractometer (Thermo Electron Corp., Waltham, Mass.), equipped with Nickel-filtered Cu Kα radiation at 1.54 Å, was used for XRPD measurements from about 1.5 °2θ to about 40 °2θ, with a step size of about 0.020°, a count time of about 0.50 seconds per step, and a step scan rate of about 2.40°/min. The instrument was equipped with a fine focus X-ray tube. The voltage and amperage were set at 45 kV and 40 mA, respectively. The divergence slits were set at 0.5 mm and 0.2 mm. Diffracted radiation was measured using a Peltier-cooled Si (Li) solid-state detector. Representative XRPD patterns were presented displaying intensity (counts per second) versus position (°2θ). A sintered alumina standard was used to check peak positions. Peak positions may vary from sample to sample by approximately ±0.1 °2θ. Variation in peak position may depend upon multiple factors, including particle size, sample preparation, data collection temperature and parameters. Variation in peak intensity may occur, e.g., as a result of preferred orientation and/or variation in crystal habit.

XRPD pattern following moisture sorption analysis ([1]; after sorption/desorption cycle): substantially unchanged
mass gain in moisture sorption analysis ([1]; increased from about 0% to about 80% RH): about 0.5%
mass gain in moisture sorption analysis ([1]; increased from about 0% to about 95% RH): about 1.4%
XRPD pattern after compression testing [2]: substantially unchanged
stability during drying (Stability during drying): stable
Resulting Form by XRPD ([3]; Equilibrate Form A in 2-Propanol for 4 weeks at 40° C.): Compound I Free Base Form A
Resulting Form by XRPD ([3]; Equilibrate Form A in Acetone for 4 weeks at 40° C.): Compound I Free Base Form A
Resulting Form by XRPD ([3]; Equilibrate Form A in Acetonitrile for 4 weeks at 40° C.): Compound I Free Base Form A
Resulting Form by XRPD ([3]; Equilibrate Form A in Ethyl acetate for 4 weeks at 40° C.): Compound I Free Base Form A
Resulting Form by XRPD ([3]; Equilibrate Form A in Heptane for 4 weeks at 40° C.): Compound I Free Base Form A
Resulting Form by XRPD ([3]; Equilibrate Form A in MTBE for 4 weeks at 40° C.): Compound I Free Base Form A
Resulting Form by XRPD ([3]; Equilibrate Form A in Toluene for 4 weeks at 40° C.): Compound I Free Base Form A
Resulting Form by XRPD ([3]; Equilibrate Form A in Water for 4 weeks at 40° C.): Compound I Free Base Form A
SMILES: O[C@H]1CC[C@H](Nc2ncc3nc(Nc4c(F)cc(F)cc4F)n([C@H]4CCOC4)c3n2)CC1 (stereo in doubt) [Form A of the Free Base of Compound I, 4-[9-(tetrahydro-furan-3-yl)-8-(2,4,6-trifluoro-phenylamino)-9H-purin-2-ylamino]-cyclohexan-1-ol]
